Reference: ChEMBL document CHEMBL3826915, “Design and comparative anticonvulsant activity assessment of CNS-active alkyl-carbamoyl imidazole derivatives” (Bioorg Med Chem, 2016)
Active and inactive are the calls of the source. No cut-off for these calls is given here.

What was measured:
[1] = system: Mus musculus; test: Neurotoxicity in albino CF1 mouse assessed as behavioral impairment at 300 mg/kg, ip after 2 hrs by rotorod test; format: toxicity, organism-based; settings: in vivo
[2] = system: Mus musculus; test: Anticonvulsant activity in albino CF1 mouse assessed as protection against 32 mA current-induced seizure at 30 mg/kg, ip after 2 hrs by 6 Hz psychomotor test; format: functional, organism-based
[3] = system: Mus musculus; test: Anticonvulsant activity in albino CF1 mouse assessed as protection against maximal electroshock-induced seizures at 100 mg/kg, ip after 0.5 hrs; format: functional, organism-based
[4] = system: Mus musculus; test: Anticonvulsant activity in albino CF1 mouse assessed as protection against maximal electroshock-induced seizures at 30 mg/kg, ip after 0.5 hrs; format: functional, organism-based
[5] = system: Mus musculus; test: Anticonvulsant activity in albino CF1 mouse assessed as protection against 32 mA current-induced seizure at 30 mg/kg, ip after 0.5 hrs by 6 Hz psychomotor test; format: functional, organism-based
[6] = system: Mus musculus; test: Neurotoxicity in albino CF1 mouse assessed as behavioral impairment at 30 mg/kg, ip after 2 hrs by rotorod test; format: toxicity, organism-based; settings: in vivo
[7] = system: Mus musculus; test: Neurotoxicity in albino CF1 mouse assessed as behavioral impairment at 30 mg/kg, ip after 0.5 hrs by rotorod test; format: toxicity, organism-based; settings: in vivo
[8] = system: Mus musculus; test: Anticonvulsant activity in albino CF1 mouse assessed as protection against maximal electroshock-induced seizures at 30 mg/kg, ip after 2 hrs; format: functional, organism-based
[9] = system: Mus musculus; test: Neurotoxicity in albino CF1 mouse assessed as behavioral impairment at 300 mg/kg, ip after 0.5 hrs by rotorod test; format: toxicity, organism-based; settings: in vivo
[10] = system: Mus musculus; test: Anticonvulsant activity in albino CF1 mouse assessed as protection against 32 mA current-induced seizure at 100 mg/kg, ip after 2 hrs by 6 Hz psychomotor test; format: functional, organism-based
[11] = system: Mus musculus; test: Neurotoxicity in albino CF1 mouse assessed as behavioral impairment at 100 mg/kg, ip after 2 hrs by rotorod test; format: toxicity, organism-based; settings: in vivo
[12] = system: Rattus norvegicus; test: Neurotoxicity in albino Sprague-Dawley rat assessed as behavioral impairment at 30 mg/kg, po after 2 hrs by rotorod test; format: toxicity, organism-based; settings: in vivo
[13] = system: Rattus norvegicus; test: Neurotoxicity in albino Sprague-Dawley rat assessed as behavioral impairment at 30 mg/kg, ip after 0.5 hrs by rotorod test; format: toxicity, organism-based; settings: in vivo
[14] = system: Rattus norvegicus; test: Neurotoxicity in albino Sprague-Dawley rat assessed as behavioral impairment at 30 mg/kg, po after 1 hr by rotorod test; format: toxicity, organism-based; settings: in vivo
[15] = system: Mus musculus; test: Anticonvulsant activity in albino CF1 mouse assessed as protection against 32 mA current-induced seizure at 300 mg/kg, ip after 0.5 hrs by 6 Hz psychomotor test; format: functional, organism-based
[16] = system: Rattus norvegicus; test: Neurotoxicity in albino Sprague-Dawley rat assessed as behavioral impairment at 30 mg/kg, ip after 0.25 hrs by rotorod test; format: toxicity, organism-based; settings: in vivo
[17] = system: Rattus norvegicus; test: Neurotoxicity in albino Sprague-Dawley rat assessed as behavioral impairment at 30 mg/kg, ip after 1 hr by rotorod test; format: toxicity, organism-based; settings: in vivo
[18] = system: Mus musculus; test: Anticonvulsant activity in albino CF1 mouse assessed as protection against 32 mA current-induced seizure at 300 mg/kg, ip after 2 hrs by 6 Hz psychomotor test; format: functional, organism-based
[19] = system: Mus musculus; test: Anticonvulsant activity in albino CF1 mouse assessed as protection against maximal electroshock-induced seizures at 100 mg/kg, ip after 2 hrs; format: functional, organism-based
[20] = system: Rattus norvegicus; test: Neurotoxicity in albino Sprague-Dawley rat assessed as behavioral impairment at 30 mg/kg, ip after 2 hrs by rotorod test; format: toxicity, organism-based; settings: in vivo
[21] = system: Rattus norvegicus; test: Anticonvulsant activity in albino Sprague-Dawley rat assessed as protection against maximal electroshock-induced seizures at 30 mg/kg, po after 1 hr; format: functional, organism-based
[22] = system: Rattus norvegicus; test: Neurotoxicity in albino Sprague-Dawley rat assessed as behavioral impairment at 30 mg/kg, po after 0.25 hrs by rotorod test; format: toxicity, organism-based; settings: in vivo
[23] = system: Rattus norvegicus; test: Anticonvulsant activity in albino Sprague-Dawley rat assessed as protection against maximal electroshock-induced seizures at 30 mg/kg, po after 2 hrs; format: functional, organism-based
[24] = system: Mus musculus; test: Anticonvulsant activity in albino CF1 mouse assessed as protection against 32 mA current-induced seizure at 100 mg/kg, ip after 0.5 hrs by 6 Hz psychomotor test; format: functional, organism-based
[25] = system: Rattus norvegicus; test: Anticonvulsant activity in albino Sprague-Dawley rat assessed as protection against maximal electroshock-induced seizures at 30 mg/kg, po after 0.5 hrs; format: functional, organism-based
[26] = system: Rattus norvegicus; test: Neurotoxicity in albino Sprague-Dawley rat assessed as behavioral impairment at 30 mg/kg, po after 0.5 hrs by rotorod test; format: toxicity, organism-based; settings: in vivo
[27] = system: Mus musculus; test: Anticonvulsant activity in albino CF1 mouse assessed as protection against maximal electroshock-induced seizures at 300 mg/kg, ip after 2 hrs; format: functional, organism-based
[28] = system: Mus musculus; test: Anticonvulsant activity in albino CF1 mouse assessed as protection against maximal electroshock-induced seizures at 300 mg/kg, ip after 0.5 hrs; format: functional, organism-based
[29] = system: Rattus norvegicus; test: Anticonvulsant activity in albino Sprague-Dawley rat assessed as protection against maximal electroshock-induced seizures at 30 mg/kg, po after 0.25 hrs; format: functional, organism-based
[30] = system: Rattus norvegicus; test: Anticonvulsant activity in albino Sprague-Dawley rat assessed as protection against maximal electroshock-induced seizures at 30 mg/kg, ip after 2 hrs; format: functional, organism-based
[31] = Protective index, ratio of TD50 for neurotoxicity in ip dosed albino CF1 mouse to ED50 for anticonvulsant activity in ip dosed maximal electroshock-induced seizure albino CF1 mouse model; format: toxicity, organism-based; settings: in vivo, read-out: Ratio TD50/ED50
[32] = system: Mus musculus; test: Anticonvulsant activity in ip dosed albino CF1 mouse assessed as protection against 6 Hz current-induced seizure by measuring time to peak effect; format: functional
[33] = system: Rattus norvegicus; test: Anticonvulsant activity in albino Sprague-Dawley rat assessed as protection against maximal electroshock-induced seizures at 30 mg/kg, ip after 0.25 hrs; format: functional, organism-based
[34] = system: Mus musculus; test: Anticonvulsant activity in ip dosed albino CF1 mouse assessed as protection against maximal electroshock-induced seizures; format: functional
[35] = system: Mus musculus; test: Anticonvulsant activity in ip dosed albino CF1 mouse assessed as protection against subcutaneous metrazol-induced seizures by measuring time to peak effect; format: functional
[36] = system: Mus musculus; test: Anticonvulsant activity in ip dosed albino CF1 mouse assessed as protection against subcutaneous metrazol-induced seizures; format: functional
[37] = system: Mus musculus; test: Anticonvulsant activity in ip dosed albino CF1 mouse assessed as protection against 6 Hz current-induced seizures by psychomotor test; format: functional
[38] = Neurotoxicity in ip dosed albino CF1 mouse assessed as motor impairment by rotorod test; format: toxicity, organism-based; settings: in vivo
[39] = Protective index, ratio of TD50 for neurotoxicity in ip dosed albino CF1 mouse to ED50 for anticonvulsant activity in ip dosed […] metrazol-induced seizure albino CF1 mouse model; format: toxicity, organism-based; settings: in vivo, read-out: Ratio TD50/ED50
[40] = system: Rattus norvegicus; test: Anticonvulsant activity in albino Sprague-Dawley rat assessed as protection against maximal electroshock-induced seizures at 30 mg/kg, ip after 0.5 hrs; format: functional, organism-based
[41] = system: Mus musculus; test: Anticonvulsant activity in ip dosed albino CF1 mouse assessed as protection against maximal electroshock-induced seizures by measuring time to peak effect; format: functional
[42] = system: Rattus norvegicus; test: Anticonvulsant activity in albino Sprague-Dawley rat assessed as protection against maximal electroshock-induced seizures at 30 mg/kg, ip after 1 hr; format: functional, organism-based

SMILES	Activity [1]	Activity [2]	Activity [3]	Activity [4]	Activity [5]	Activity [6]	Activity [7]	Activity [8]	Activity [9]	Activity [11]	Activity [12]	Activity [13]	Activity [14]	Activity [16]	Activity [17]	Activity [19]	Activity [20]	Activity [22]	Activity [23]	Activity [26]	other results
CCCCC(CC)COC(=O)NCCCn1ccnc1 (stereo not given)	Toxic	inactive	Active	inactive	inactive	Non-toxic	Non-toxic	inactive	Toxic	Non-toxic											Activity [10]: inactive
CC(C)(C)COC(=O)NCCCn1ccnc1		inactive		inactive	inactive	Non-toxic	Non-toxic	inactive		Non-toxic	Non-toxic	Non-toxic	Non-toxic	Non-toxic	Non-toxic	Active	Non-toxic	Non-toxic	inactive	Non-toxic	Activity [15]: inactive; Activity [18]: inactive; Activity [21]: inactive; Activity [10]: inactive; Activity [24]: inactive; Activity [25]: inactive; Activity [27]: Active; Activity [28]: inactive
CC(C)(C)CCOC(=O)NCCCn1ccnc1	Toxic	inactive	Active		inactive	Non-toxic	Non-toxic	inactive	Toxic	Non-toxic	Non-toxic	Non-toxic	Non-toxic	Non-toxic	Non-toxic	Active	Non-toxic	Non-toxic	inactive	Non-toxic	Activity [21]: inactive; Activity [29]: inactive; Activity [25]: inactive; Activity [30]: inactive
O=C(NCCCn1ccnc1)OCCc1ccccc1	Toxic	inactive	Active	Active	inactive	Non-toxic	Non-toxic	inactive	Toxic	Non-toxic	Non-toxic	Non-toxic	Non-toxic	Non-toxic	Non-toxic	Active	Non-toxic	Non-toxic	inactive	Non-toxic	selectivity ratio [31]: 5.5; Time [32]: 0.5 h; Activity [33]: Active; ED50 [34]: 14 mg/kg; Time [35]: 0.5 h; ED50 [36]: > 80 mg/kg; ED50 [37]: inactive; TD50 [38]: 77 mg/kg; selectivity ratio [39]: 0.96; Activity [40]: Active; Time [41]: 0.5 h; Activity [24]: Active; Activity [27]: Active; Activity [28]: Active
CCCC(CCC)C(=O)O [VALPROIC ACID]																					Time [32]: 0.5 h; Time [35]: 0.5 h; ED50 [36]: 646 mg/kg; TD50 [38]: 784 mg/kg; Time [41]: 0.5 h
NC(=O)OCC(COC(N)=O)c1ccccc1 [FELBAMATE]																					selectivity ratio [31]: > 20; Time [32]: 0.5 h; ED50 [34]: 25 mg/kg; Time [35]: 0.5 h; ED50 [36]: > 250 mg/kg; TD50 [38]: > 500 mg/kg; Time [41]: 0.5 h
CCC(C)C(C)OC(=O)NCCCn1ccnc1 (stereo not given)		inactive	Active	inactive	inactive	Non-toxic	Non-toxic	inactive	Toxic	Non-toxic	Non-toxic	Non-toxic	Non-toxic	Non-toxic	Non-toxic	Active	Non-toxic	Non-toxic	inactive	Non-toxic	Activity [42]: inactive; Activity [10]: inactive; Activity [29]: inactive; Activity [25]: inactive; Activity [30]: inactive; Activity [28]: Active
